In publication PMC10766964, “Copper-catalyzed synthesis of pyrazolo[1,5-a]pyrimidine based triazole-linked glycohybrids: mechanistic insights and bio-applications” (Scientific Reports, 2024):

What was measured:
Format in all cases: cell-based
[1] = MTT cell viability assay in normal MCF-10A cells; conditions: human, MCF-10A normal mammary epithelial cells, MCF-10A normal cells, read-out: Cell viability (%) ± SD
Description: (§1) We also included normal mammary epithelial MCF-10A cells in our experiments to confirm if the growth-inhibitory activities of the selected compounds are truly cancer cell-specific. The activity data from MCF-7 and MDA-MB-453 cell lines (tested at 1 µM, 10 µM and 25 µM) and activity data from MCF-10A cell line (tested at 25 µM, 50 µM and 100 µM) are summarized in Table 3. To evaluate cell viability, the MTT assay was conducted following standard procedures. After 72 h of cell incubation with or without each compound, cell viability was assessed using MTT (3-(4,5-dimethylthiazol-2-yl)-2,5-diphenyltetrazolium bromide), which is a colorimetric method for determining the number of viable cells in various assays including proliferation, cytotoxicity, or chemosensitivity. The MTT reagent was added to the cells after removal of the medium and incubated for 3 h at 37 °C in the CO2 incubator. The formazan product, which is […] in the tissue culture medium, was dissolved in DMSO, and the absorbance of the formazan product was directly measured at 595 nm using a multimode plate reader without additional processing. The absorbance values are directly proportional to the number of viable cells in culture. The percentage of viable cells in each group was determined relative to the untreated control cells.

[2] = system: normal mammary epithelial MCF-10A cells; experiment: MTT cell viability assay in normal MCF-10A cells; conditions: tested at 25 µM, 50 µM and 100 µM
Description: as §1

[3] = system: MCF-7 (hormone receptor/HR-positive breast cancer cells); experiment: MTT cell viability assay in MCF-7 cells; conditions: Homo sapiens, MCF7, 72 h, concentrations 10 µM, 25 µM and 50 μM in Fig. 10, read-out: IC50 against MCF-7 breast cancer cells line

CC(=O)OC[C@H]1O[C@@H](n2cc(COc3cc(-c4ccc(Cl)cc4)nc4ccnn34)nn2)[C@H](OC(C)=O)[C@@H](OC(C)=O)[C@H]1OC(C)=O [Compound 10d, (2R,3S,4S,5R,6R)-2-(acetoxymethyl)-6-(4-(((5-(4-chlorophenyl)pyrazolo[1,5-a]pyrimidin-7-yl)oxy)methyl)-1H-1,2,3-triazol-1-yl)tetrahydro-2H-pyran-3,4,5-triyl triacetate] gave a viability at 72 h, 25 µM [1] of 89.6 ± 2.2%, a viability at 72 h, 50 µM [1] of 85.6 ± 1.7% and a viability at 72 h, 100 µM [1] of 84.4 ± 2.6%. The “growth inhibitory activity against normal breast epithelial cell (MCF-10A) (in words)” value (“growth inhibitory activity” below) [2] was “none of these compounds did have any growth inhibitory activity” and the IC50 [3] was 40.1 µM.
CC(=O)OC[C@H]1O[C@H](n2cc(COc3cc(-c4ccc(C(C)C)cc4)nc4ccnn34)nn2)[C@@H](OC(C)=O)[C@@H](OC(C)=O)[C@@H]1OC(C)=O [Compound 11g, (2R,3R,4S,5S,6S)-2-(acetoxymethyl)-6-(4-(((5-(4-isopropylphenyl)pyrazolo[1,5-a]pyrimidin-7-yl)oxy)methyl)-1H-1,2,3-triazol-1-yl)tetrahydro-2H-pyran-3,4,5-triyl triacetate] showed a viability at 72 h, 25 µM [1] of 89.8 ± 2.8%, a viability at 72 h, 50 µM [1] of 84.2 ± 5.8% and a viability at 72 h, 100 µM [1] of 88 ± 1.5%. The “growth inhibitory activity” value [2] was “none of these compounds did have any growth inhibitory activity” and the IC50 [3] was 18.3 µM.
CC(=O)OC[C@H]1O[C@@H](n2cc(COc3cc(-c4ccc(C(F)(F)F)cc4)nc4ccnn34)nn2)[C@H](OC(C)=O)[C@@H](OC(C)=O)[C@H]1OC(C)=O [Compound 10f, (2R,3S,4S,5R,6R)-2-(acetoxymethyl)-6-(4-(((5-(4-(trifluoromethyl)phenyl)pyrazolo[1,5-a]pyrimidin-7-yl)oxy)methyl)-1H-1,2,3-triazol-1-yl)tetrahydro-2H-pyran-3,4,5-triyl triacetate] gave a viability at 72 h, 25 µM [1] of 86.6 ± 1.5%, a viability at 72 h, 50 µM [1] of 88.1 ± 2.8% and a viability at 72 h, 100 µM [1] of 84.2 ± 3%. The “growth inhibitory activity” value [2] was “none of these compounds did have any growth inhibitory activity” and the IC50 [3] was 42.1 µM.
Work on CC(=O)OC[C@H]1O[C@@H](n2cc(COc3cc(-c4ccc(Cl)cc4)nc4ccnn34)nn2)[C@H](OC(C)=O)[C@@H](OC(C)=O)[C@@H]1OC(C)=O [Compound 9d, (2R,3R,4S,5R,6R)-2-(acetoxymethyl)-6-(4-(((5-(4-chlorophenyl)pyrazolo[1,5-a]pyrimidin-7-yl)oxy)methyl)-1H-1,2,3-triazol-1-yl)tetrahydro-2H-pyran-3,4,5-triyl triacetate] yielded a viability at 72 h, 25 µM [1] of 87.8 ± 2.8%, a viability at 72 h, 50 µM [1] of 85.6 ± 0.7% and a viability at 72 h, 100 µM [1] of 82 ± 1.5%. For the same compound, the “growth inhibitory activity” value [2] was “none of these compounds did have any growth inhibitory activity” and the IC50 [3] was 15.3 µM.
In the case of CC(=O)OC[C@H]1O[C@@H](n2cc(COc3cc(-c4ccc5ccccc5c4)nc4ccnn34)nn2)[C@H](OC(C)=O)[C@@H](OC(C)=O)[C@@H]1OC(C)=O [Compound 9h, (2R,3R,4S,5R,6R)-2-(acetoxymethyl)-6-(4-(((5-(naphthalen-2-yl)pyrazolo[1,5-a]pyrimidin-7-yl)oxy)methyl)-1H-1,2,3-triazol-1-yl)tetrahydro-2H-pyran-3,4,5-triyl triacetate], the viability at 72 h, 25 µM [1] is reported as 86.8 ± 5.3%, the viability at 72 h, 50 µM [1] is reported as 88.8 ± 3% and the viability at 72 h, 100 µM [1] is reported as 68.5 ± 3.4%. For the same compound, the “growth inhibitory activity” value [2] was “none of these compounds did have any growth inhibitory activity” and the IC50 [3] was 21.1 µM.
In the case of CC(=O)OC[C@H]1O[C@@H](n2cc(COc3cc(-c4ccc(C)cc4)nc4ccnn34)nn2)[C@H](OC(C)=O)[C@@H](OC(C)=O)[C@@H]1OC(C)=O [Compound 9a, (2R,3R,4S,5R,6R)-2-(acetoxymethyl)-6-(4-(((5-(p-tolyl)pyrazolo[1,5-a]pyrimidin-7-yl)oxy)methyl)-1H-1,2,3-triazol-1-yl)tetrahydro-2H-pyran-3,4,5-triyl triacetate], the viability at 72 h, 25 µM [1] is reported as 88.6 ± 1.5%, the viability at 72 h, 50 µM [1] is reported as 84.3 ± 2.9% and the viability at 72 h, 100 µM [1] is reported as 84.2 ± 3%. For the same compound, the “growth inhibitory activity” value [2] was “none of these compounds did have any growth inhibitory activity” and the IC50 [3] was 35.4 µM.
